Results reported in patent US9695155B2, “Herbicidal substituted pyrimidinyloxy benzene compounds” (E. I. DU PONT DE NEMOURS AND COMPANY, priority 2013, dated 2017).

Legend:
Assay in all cases: Test E preemergence
hairy beggarticks = assay type: in vivo, Bidens pilosa; conditions: for Beggarticks plant response rating: scale 0 to 100 (0 no effect, 100 complete control)
Excerpt: (§1) Seeds of plant species selected from corn (Zea mays), soybean (Glycine max), velvetleaf (Abutilon theophrasti), lambsquarters (Chenopodium album), wild poinsettia (Euphorbia heterophylla), palmer pigweed (Amaranthus palmeri), waterhemp (common waterhemp, Amaranthus rudis), surinam grass (Brachiaria decumbens), large (Lg) crabgrass (Digitaria sanguinalis), Brazilian crabgrass (Digitaria horizontalis), fall panicum (Panicum dichotomiflorum), giant foxtail (Setaria faberii), green foxtail (Setaria viridis), goosegrass (Eleusine indica), johnsongrass (Sorghum halepense), ragweed (common ragweed, Ambrosia elatior), barnyardgrass (Echinochloa crus-galli), sandbur (southern sandbur, Cenchrus echinatus), arrowleaf sida (Sida rhombifolia), Italian ryegrass (Lolium multiflorum), dayflower (Virginia (VA) dayflower, Commelina virginica), field bindweed (Convolvulus arvensis), morningglory (Ipomoea coccinea), nightshade (eastern black nightshade, Solanum ptycanthum), kochia (Kochia scoparia), yellow nutsedge (Cyperus esculentus), cocklebur (common cocklebur, Xanthium strumarium), smartweed (ladysthumb smartweed, and hairy beggarticks (Bidens pilosa), were planted into a silt loam soil and treated preemergence with test chemicals formulated in a non-phytotoxic solvent mixture which included a surfactant.
(§2) At the same time, plants from these crop and weed species and also horseweed (Canada horseweed, Conyza canadensis), waterhemp_RES1, (ALS & Triazine resistant common waterhemp, Amaranthus rudis), and waterhemp_RES2, (ALS & HPPD resistant common waterhemp, Amaranthus rudis) were planted in pots containing Redi-Earth® planting medium (Scotts Company, 14111 Scottslawn Road, Marysville, Ohio 43041) comprising spaghnum peat moss, vermiculite, wetting agent and starter nutrients were treated with postemergence applications of test chemicals formulated in the same manner. Plants ranged in height from 2 to 18 cm for postemergence treatments (1- to 4-leaf stage). Treated plants and controls were maintained in a greenhouse for 14 to 21 days, after which time all species were compared to controls and visually evaluated. Plant response ratings, summarized in Table E, are based on a scale of 0 to 100 where 0 is no effect and 100 is complete control. A dash (-) response means no test result.

kochia = assay type: in vivo, Kochia scoparia; conditions: for Kochia plant response rating: scale 0 to 100 (0 no effect, 100 complete control)
Excerpt: as §1, §2

wild poinsettia = assay type: in vivo, Euphorbia heterophylla; conditions: for Poinsettia, Wild plant response rating: scale 0 to 100 (0 no effect, 100 complete control)
Excerpt: as §1, §2

nightshade = assay type: in vivo, Solanum ptycanthum; conditions: for Nightshade plant response rating: scale 0 to 100 (0 no effect, 100 complete control)
Excerpt: as §1, §2

dayflower = assay type: in vivo, Commelina virginica; conditions: for Dayflower, VA plant response rating: scale 0 to 100 (0 no effect, 100 complete control)
Excerpt: as §1, §2

field bindweed = assay type: in vivo, Convolvulus arvensis; conditions: for Field Bindweed plant response rating: scale 0 to 100 (0 no effect, 100 complete control)
Excerpt: as §1, §2

johnsongrass = assay type: in vivo, Sorghum halepense; conditions: for Johnsongrass plant response rating: scale 0 to 100 (0 no effect, 100 complete control)
Excerpt: as §1, §2

Brazilian crabgrass = assay type: in vivo, Digitaria horizontalis; conditions: for Crabgrass, Brazil plant response rating: scale 0 to 100 (0 no effect, 100 complete control)
Excerpt: as §1, §2

velvetleaf = assay type: in vivo, Abutilon theophrasti; conditions: for Velvetleaf plant response rating: scale 0 to 100 (0 no effect, 100 complete control)
Excerpt: as §1, §2

arrowleaf sida = assay type: in vivo, Sida rhombifolia; conditions: for Arrowleaf Sida plant response rating: scale 0 to 100 (0 no effect, 100 complete control)
Excerpt: as §1, §2

[1] = 8 g ai/ha, preemergence, scale 0 to 100, 0 is no effect, 100 is complete control
[2] = Preemergence, 62 g ai/ha, scale 0 to 100, 0 no effect, 100 complete control
[3] = preemergence, 125 g ai/ha, scale 0 to 100, 0 no effect, 100 complete control
[4] = 8 g ai/ha, scale 0 to 100, 0 is no effect, 100 is complete control
[5] = 125 g ai/ha, scale 0 to 100, 0 no effect, 100 complete control
[6] = preemergence, 250 g ai/ha, scale 0 to 100, 0 no effect, 100 complete control
[7] = 250 g ai/ha, scale 0 to 100, 0 no effect, 100 complete control

SMILES: Clc1cnc(Oc2ccccc2-n2cc(Br)cn2)nc1 [Compound 7, 2-[2-(4-bromo-1H-pyrazol-1-yl)phenoxy]-5-chloropyrimidine]
- Plant response rating, Beggarticks (hairy beggarticks; [1]): 0
- Beggarticks plant response rating (hairy beggarticks; 16 g ai/ha, preemergence): 0
- Beggarticks plant response rating (hairy beggarticks; 31 g ai/ha, preemergence): 0
- Plant response rating, Beggarticks (hairy beggarticks; [2]): 0
- Plant response rating, Beggarticks (hairy beggarticks; [3]): 0
- Plant response rating, Kochia (kochia; [4]): 0
- Kochia plant response rating (kochia; 16 g ai/ha): 0
- Kochia plant response rating (kochia; 31 g ai/ha): 0
- Kochia plant response rating (kochia; 62 g ai/ha): 50
- Plant response rating, Kochia (kochia; [5]): 95
- Plant response rating, Poinsettia, Wild (wild poinsettia; [4]): 0
- Poinsettia, Wild plant response rating (wild poinsettia; 16 g ai/ha): 0
- Poinsettia, Wild plant response rating (wild poinsettia; 31 g ai/ha): 0
- Plant response rating, Poinsettia, Wild (wild poinsettia; [5]): 0
- Plant response rating, Nightshade (nightshade; [4]): 0
- Nightshade plant response rating (nightshade; 16 g ai/ha): 65
- Nightshade plant response rating (nightshade; 31 g ai/ha): 98
- Nightshade plant response rating (nightshade; 62 g ai/ha): 98
- Plant response rating, Nightshade (nightshade; [5]): 98
- Plant response rating, Dayflower, VA (dayflower; [4]): 0
- Dayflower, VA plant response rating (dayflower; 16 g ai/ha): 0
- Dayflower, VA plant response rating (dayflower; 31 g ai/ha): 0
- Dayflower, VA plant response rating (dayflower; 62 g ai/ha): 20
- Plant response rating, Dayflower, VA (dayflower; [5]): 65
- Plant response rating, Field Bindweed (field bindweed; [4]): 0
- Field Bindweed plant response rating (field bindweed; 16 g ai/ha): 0
- Field Bindweed plant response rating (field bindweed; 31 g ai/ha): 0
- Field Bindweed plant response rating (field bindweed; 62 g ai/ha): 0
- Plant response rating, Field Bindweed (field bindweed; [5]): 0
- Plant response rating, Johnsongrass (johnsongrass; [4]): 0
- Johnsongrass plant response rating (johnsongrass; 16 g ai/ha): 0
- Johnsongrass plant response rating (johnsongrass; 31 g ai/ha): 0
- Johnsongrass plant response rating (johnsongrass; 62 g ai/ha): 40
- Plant response rating, Johnsongrass (johnsongrass; [5]): 50
- Plant response rating, Crabgrass, Brazil (Brazilian crabgrass; [4]): 0
- Crabgrass, Brazil plant response rating (Brazilian crabgrass; 16 g ai/ha): 0
- Crabgrass, Brazil plant response rating (Brazilian crabgrass; 31 g ai/ha): 80
- Crabgrass, Brazil plant response rating (Brazilian crabgrass; 62 g ai/ha): 100
- Plant response rating, Crabgrass, Brazil (Brazilian crabgrass; [5]): 100
- Plant response rating, Velvetleaf (velvetleaf; [4]): 20
- Velvetleaf plant response rating (velvetleaf; 16 g ai/ha): 50
- Velvetleaf plant response rating (velvetleaf; 31 g ai/ha): 65
- Velvetleaf plant response rating (velvetleaf; 62 g ai/ha): 98
- Plant response rating, Velvetleaf (velvetleaf; [5]): 100
- Plant response rating, Arrowleaf Sida (arrowleaf sida; [1]): 0
- Arrowleaf Sida plant response rating (arrowleaf sida; 16 g ai/ha, preemergence): 0
- Arrowleaf Sida plant response rating (arrowleaf sida; 31 g ai/ha, preemergence): 25
- Plant response rating, Arrowleaf Sida (arrowleaf sida; [2]): 50
- Plant response rating, Arrowleaf Sida (arrowleaf sida; [3]): 80

SMILES: FC(F)(F)c1cnn(-c2ccccc2Oc2ncc(Cl)cn2)c1 [Compound 16]
- Beggarticks plant response rating (hairy beggarticks; 16 g ai/ha, preemergence): 0
- Beggarticks plant response rating (hairy beggarticks; 31 g ai/ha, preemergence): 0
- Plant response rating, Beggarticks (hairy beggarticks; [2]): 0
- Plant response rating, Beggarticks (hairy beggarticks; [3]): 0
- Plant response rating, Beggarticks (hairy beggarticks; [6]): 0
- Kochia plant response rating (kochia; 16 g ai/ha): 0
- Kochia plant response rating (kochia; 31 g ai/ha): 0
- Kochia plant response rating (kochia; 62 g ai/ha): 65
- Plant response rating, Kochia (kochia; [5]): 100
- Plant response rating, Kochia (kochia; [7]): 100
- Poinsettia, Wild plant response rating (wild poinsettia; 16 g ai/ha): 0
- Poinsettia, Wild plant response rating (wild poinsettia; 31 g ai/ha): 0
- Poinsettia, Wild plant response rating (wild poinsettia; 62 g ai/ha): 50
- Plant response rating, Poinsettia, Wild (wild poinsettia; [5]): 50
- Plant response rating, Poinsettia, Wild (wild poinsettia; [7]): 100
- Nightshade plant response rating (nightshade; 16 g ai/ha): 0
- Nightshade plant response rating (nightshade; 31 g ai/ha): 98
- Nightshade plant response rating (nightshade; 62 g ai/ha): 100
- Plant response rating, Nightshade (nightshade; [5]): 100
- Plant response rating, Nightshade (nightshade; [7]): 100
- Dayflower, VA plant response rating (dayflower; 16 g ai/ha): 0
- Dayflower, VA plant response rating (dayflower; 31 g ai/ha): 0
- Dayflower, VA plant response rating (dayflower; 62 g ai/ha): 35
- Plant response rating, Dayflower, VA (dayflower; [5]): 70
- Plant response rating, Dayflower, VA (dayflower; [7]): 98
- Field Bindweed plant response rating (field bindweed; 16 g ai/ha): 0
- Field Bindweed plant response rating (field bindweed; 31 g ai/ha): 0
- Field Bindweed plant response rating (field bindweed; 62 g ai/ha): 0
- Plant response rating, Field Bindweed (field bindweed; [5]): 30
- Plant response rating, Field Bindweed (field bindweed; [7]): 60
- Johnsongrass plant response rating (johnsongrass; 16 g ai/ha): 0
- Johnsongrass plant response rating (johnsongrass; 31 g ai/ha): 0
- Johnsongrass plant response rating (johnsongrass; 62 g ai/ha): 0
- Plant response rating, Johnsongrass (johnsongrass; [5]): 25
- Plant response rating, Johnsongrass (johnsongrass; [7]): 40
- Crabgrass, Brazil plant response rating (Brazilian crabgrass; 62 g ai/ha): 100
- Plant response rating, Crabgrass, Brazil (Brazilian crabgrass; [5]): 100
- Plant response rating, Crabgrass, Brazil (Brazilian crabgrass; [7]): 100
- Velvetleaf plant response rating (velvetleaf; 16 g ai/ha): 0
- Velvetleaf plant response rating (velvetleaf; 31 g ai/ha): 50
- Velvetleaf plant response rating (velvetleaf; 62 g ai/ha): 85
- Plant response rating, Velvetleaf (velvetleaf; [5]): 100
- Plant response rating, Velvetleaf (velvetleaf; [7]): 100
- Arrowleaf Sida plant response rating (arrowleaf sida; 16 g ai/ha, preemergence): 5
- Arrowleaf Sida plant response rating (arrowleaf sida; 31 g ai/ha, preemergence): 35
- Plant response rating, Arrowleaf Sida (arrowleaf sida; [2]): 70
- Plant response rating, Arrowleaf Sida (arrowleaf sida; [3]): 95
- Plant response rating, Arrowleaf Sida (arrowleaf sida; [6]): 98

SMILES: N#Cc1cccc(Oc2ncc(Cl)cn2)c1-n1cc(C(F)(F)F)cn1 [Compound 58, 3-[(5-chloro-2-pyrimidinyl)oxy]-2-[4-(trifluoromethyl)-1H-pyrazol-1-yl]benzonitrile]
- Beggarticks plant response rating (hairy beggarticks; 16 g ai/ha, preemergence): 0
- Beggarticks plant response rating (hairy beggarticks; 31 g ai/ha, preemergence): 0
- Plant response rating, Beggarticks (hairy beggarticks; [2]): 0
- Plant response rating, Beggarticks (hairy beggarticks; [3]): 15
- Plant response rating, Beggarticks (hairy beggarticks; [6]): 100
- Kochia plant response rating (kochia; 16 g ai/ha): 35
- Kochia plant response rating (kochia; 31 g ai/ha): 100
- Kochia plant response rating (kochia; 62 g ai/ha): 100
- Plant response rating, Kochia (kochia; [5]): 100
- Plant response rating, Kochia (kochia; [7]): 100
- Poinsettia, Wild plant response rating (wild poinsettia; 16 g ai/ha): 5
- Poinsettia, Wild plant response rating (wild poinsettia; 31 g ai/ha): 15
- Poinsettia, Wild plant response rating (wild poinsettia; 62 g ai/ha): 90
- Plant response rating, Poinsettia, Wild (wild poinsettia; [5]): 100
- Plant response rating, Poinsettia, Wild (wild poinsettia; [7]): 100
- Nightshade plant response rating (nightshade; 16 g ai/ha): 90
- Nightshade plant response rating (nightshade; 31 g ai/ha): 98
- Nightshade plant response rating (nightshade; 62 g ai/ha): 100
- Plant response rating, Nightshade (nightshade; [5]): 100
- Plant response rating, Nightshade (nightshade; [7]): 100
- Dayflower, VA plant response rating (dayflower; 16 g ai/ha): 5
- Dayflower, VA plant response rating (dayflower; 31 g ai/ha): 20
- Dayflower, VA plant response rating (dayflower; 62 g ai/ha): 70
- Plant response rating, Dayflower, VA (dayflower; [5]): 98
- Plant response rating, Dayflower, VA (dayflower; [7]): 98
- Field Bindweed plant response rating (field bindweed; 16 g ai/ha): 0
- Field Bindweed plant response rating (field bindweed; 31 g ai/ha): 20
- Field Bindweed plant response rating (field bindweed; 62 g ai/ha): 70
- Plant response rating, Field Bindweed (field bindweed; [5]): 98
- Plant response rating, Field Bindweed (field bindweed; [7]): 100
- Johnsongrass plant response rating (johnsongrass; 31 g ai/ha): 35
- Johnsongrass plant response rating (johnsongrass; 62 g ai/ha): 95
- Plant response rating, Johnsongrass (johnsongrass; [5]): 95
- Plant response rating, Johnsongrass (johnsongrass; [7]): 100
- Crabgrass, Brazil plant response rating (Brazilian crabgrass; 16 g ai/ha): 100
- Crabgrass, Brazil plant response rating (Brazilian crabgrass; 31 g ai/ha): 100
- Crabgrass, Brazil plant response rating (Brazilian crabgrass; 62 g ai/ha): 100
- Plant response rating, Crabgrass, Brazil (Brazilian crabgrass; [5]): 100
- Plant response rating, Crabgrass, Brazil (Brazilian crabgrass; [7]): 100
- Velvetleaf plant response rating (velvetleaf; 16 g ai/ha): 40
- Velvetleaf plant response rating (velvetleaf; 31 g ai/ha): 70
- Velvetleaf plant response rating (velvetleaf; 62 g ai/ha): 90
- Plant response rating, Velvetleaf (velvetleaf; [5]): 100
- Plant response rating, Velvetleaf (velvetleaf; [7]): 100
- Arrowleaf Sida plant response rating (arrowleaf sida; 16 g ai/ha, preemergence): 80
- Arrowleaf Sida plant response rating (arrowleaf sida; 31 g ai/ha, preemergence): 100
- Plant response rating, Arrowleaf Sida (arrowleaf sida; [2]): 100
- Plant response rating, Arrowleaf Sida (arrowleaf sida; [3]): 100
- Plant response rating, Arrowleaf Sida (arrowleaf sida; [6]): 100
